From paper PMC6457909 (Science (New York, N.Y.), 2019)

Key:
[1] = tested on: H1N1 A/California/07/2009 (H1/Cal); format: cell-based, influenza A virus; settings: read-out: virus neutralization EC50 for H1/Cal
[2] = tested on: H1N1 A/New Caledonia/20/1999 (H1/NCa); format: cell-based, influenza A virus; settings: read-out: virus neutralization EC50 for H1/NCa
[3] = tested on: influenza A group 1 viruses; format: cell-based, influenza A virus
In vivo pharmacokinetics = assay: In vivo pharmacokinetics; design: species or system mouse; settings: mice
[4] = tested on: panel of pharmacologically relevant receptors, ion channels, and transporters; assay: In vitro selectivity profiling; format: binding; settings: 10 µM
H1N1 A/PR/8/1934 virus [5] = assay: Mouse influenza challenge, lethal; format: in vivo; settings: for survival at day 21: lethal challenge 25x MLD
H1N1 A/PR/8/1934 virus [6] = assay: Mouse influenza challenge, sublethal; format: in vivo; settings: for survival: sublethal challenge (MLD90)
[7] = tested on: H1N1 A/PR/8/1934 virus in human bronchial epithelial cells (HBEC); assay: Viral neutralization assay in HBEC cultures; format: cell-based; settings: 96 hours post-infection
[8] = tested on: H1N1 A/Brisbane/59/2007 HA; format: biochemical, influenza A virus; settings: pH 5.25
H5 HA compared to H1 HA = format: binding, influenza A virus
Kinetic solubility = settings: versus earlier compounds
MDCK cells = assay: Cell toxicity assay
[9] = Metabolic stability in liver microsomes; settings: human liver microsomes, versus earlier compounds
[10] = Metabolic stability in liver microsomes; settings: murine liver microsomes, versus earlier compounds

CC(=O)Nc1ccc2oc(-c3ccnc(C(=O)N4CCN([C@H](c5ccccc5)c5nnn(C)n5)CC4)c3)nc2c1 [JNJ4796]
EC50 [1]: 0.066 µM
EC50 [2]: 0.038 µM
breadth of virus neutralization [3]: heterosubtypic group 1 HA binding and virus neutralization breadth
half-life (t½) (In vivo pharmacokinetics; after oral administration): 2.4 h
overall bioavailability (In vivo pharmacokinetics; oral): 30.0%
plasma concentration (Cmax) (In vivo pharmacokinetics; oral administration at 10 mg/kg): 1152 ng/mL
inhibition of off-targets [4]: does not substantially inhibit any of these potential off-targets
survival at day 21 (H1N1 A/PR/8/1934 virus [5]; 10 mg/kg twice daily oral): 100%
survival at day 21 (H1N1 A/PR/8/1934 virus [5]; 50 mg/kg twice daily oral): 100%
morbidity (animal weight loss) (H1N1 A/PR/8/1934 virus [5]; lethal challenge, 50 and 10 mg/kg): only partly alleviated morbidity
survival (H1N1 A/PR/8/1934 virus [6]; 5 mg/kg twice daily oral): 100%
survival (H1N1 A/PR/8/1934 virus [6]; 15 mg/kg twice daily oral): 100%
weight loss (H1N1 A/PR/8/1934 virus [6]; sublethal challenge, 15 and 5 mg/kg twice daily): only moderate weight loss effects
viral titers [7]: dramatically reduced the viral titers
inhibition of low pH-induced HA conformational change [8]: dose-dependently prevents pH-induced transition of HA to the post-fusion conformation
decrease of binding affinity to H5 HA compared to H1 HA (H5 HA compared to H1 HA): ~ 25 fold
aqueous solubility (in words) (Kinetic solubility): increased
cytotoxicity (MDCK cells): without cytotoxicity
intrinsic clearance (in words) [9]: significantly reduced
intrinsic clearance (in words) [10]: significantly reduced
